Legend:
[1] = molecular target: nucleotide binding site of three different antibodies; test: Sandwich ELISA, summary over three antibodies
Procedure: (§1) FIG. 2B illustrates a sandwich ELISA, in accordance with various embodiments;
(§2) HRP-streptavidin was used to bind the biotin, and a fluorescent substrate was used to quantify the amount of indole-3-butyric acid that was present on the surface.
Thus, the monovalent Kd values for the indole binding to the nucleotide binding site of three different antibodies ranged between 1-7 μM, showing a 7- to 50-fold enhancement in binding affinity over adenine.

[2] = molecular target: nucleotide binding site of chimeric human/mouse Rituximab; test: Sandwich ELISA binding of biotin-linked indole-3-butyric acid to antigen-captured antibody; conditions: fit of normalized fluorescent intensity, read-out: Kd (binding affinity)
From the text: as §1, §2

[3] = molecular target: nucleotide binding site of mouse anti-FITC antibody; test: as above; conditions: fit of normalized fluorescent intensity, read-out: Kd (binding affinity)
From the text: as §1, §2

[4] = molecular target: nucleotide binding site of rat anti-DNP antibody; test: as above; conditions: fit of normalized fluorescent intensity, read-out: Kd (binding affinity)
From the text: as §1, §2

What does the source list for `O=C(O)CCCc1c[nH]c2ccccc12` [indole-3-butyric acid]?
Kd ([1]; range over three different antibodies, read-out: monovalent Kd values): 1 to 7 µM; enhancement in binding affinity over adenine ([1]; relative to adenine): 7- to 50 fold; Kd [2]: 1700 nM; Kd [3]: 6.41 µM; Kd [4]: 1270 nM
